Earlier results in US20060020045A1, “Methods and compositions for treating inflammatory disorders of the gastrointestinal tract” (priority 2004, published 2006).

Tested on: dimethylhydrazine-induced colon carcinogenesis
Settings: effect only when present during carcinogen administration, not if given 17 weeks following the carcinogen

## CC1=C(CC(=O)O)c2cc(F)ccc2/C1=C\c1ccc([S+](C)[O-])cc1 (stereo not shown) [sulindac]
  tumor incidence: reduce tumor incidence only when present during carcinogen administration
